Results from article PMC12587545, “Noncytotoxic polymyxin derivatives enhance antibiotic action against multidrug-resistant Gram-negative bacteria” (Antimicrobial Agents and Chemotherapy, 2025).
Several values for one entry are separate records, joined by “and”; a condition that tells them apart may be missing. Identical values can stand only once.

Experiments:
P. aeruginosa = assay: Checkerboard assay (antibiotic potentiation); assay type: cell-based, Pseudomonas aeruginosa; conditions: for MICantibiotic: antibiotic alone
A. baumannii = assay: Checkerboard assay (antibiotic potentiation); assay type: cell-based, Acinetobacter baumannii; conditions: for MICantibiotic: antibiotic alone
E. coli = assay: Checkerboard assay (antibiotic potentiation); assay type: cell-based, Escherichia coli; conditions: for Interpretation: antibiotic + compound 1; for MICantibiotic + compound: antibiotic MIC with 8 µg/mL (5 µM) compound 1; for MICantibiotic: antibiotic alone; for Potentiation: of antibiotic by 8 µg/mL (5 µM) compound 1
K. pneumoniae = assay: Checkerboard assay (antibiotic potentiation); assay type: cell-based, Klebsiella pneumoniae; conditions: for Interpretation: antibiotic + compound 1; for MICantibiotic + compound: antibiotic MIC with 8 µg/mL (5 µM) compound 1; for MICantibiotic: antibiotic alone; for Potentiation: of antibiotic by 8 µg/mL (5 µM) compound 1
E. cloacae = assay: Checkerboard assay (antibiotic potentiation); assay type: cell-based, Enterobacter cloacae; conditions: E. cloacae 121887 (colistin-resistant)
E. faecalis ATCC 29212 = assay: Checkerboard assay (rifampicin potentiation); assay type: cell-based
Experimental: (§1) The interaction between the compounds and the antibiotics was evaluated using the fractional inhibitory concentration (FIC) index. FIC indices of ≤0.5 is synergistic, 0.5 < × ≤ 4 is additive, whereas >4 is antagonistic ([34]). […] .
(§2) The bacterial isolates were acquired from ATCC or the Canadian Ward Surveillance (CANWARD) study ([56]). CANWARD isolates were collected from infected patients admitted to participating medical centers across Canada.
(§3) The antibiotic and compounds were serially diluted 2-fold in CAMHB along the x- and y-axis, respectively, on a 96-well plate that was subsequently incubated with equal volumes of bacterial inoculum overnight at 37°C. Wells containing only media were used as negative controls, and wells containing only bacteria were used as positive controls. Synergy was measured by the FIC index, which is the summation of the individual FICs of the antibiotic and the compound. The FIC is calculated by dividing the MIC of one agent in the presence of another by the MIC of the agent alone. Turbidity was confirmed with a Molecular Devices (United States) EMax Plus microplate reader at a wavelength of 590 nm. The FBS studies were conducted by following a previously published protocol ([29], [50]). The FBS was inactivated by heating at 56°C for 30 min with constant swirling.

E. faecium ATCC 27270 = assay: Checkerboard assay (rifampicin potentiation); assay type: cell-based
Experimental: as §1, §2, §3

[1] = test system: Methicillin-resistant S. aureus ATCC 22592; assay: Checkerboard assay (rifampicin potentiation); assay type: cell-based; conditions: MRSA ATCC 22592
Experimental: as §1, §2, §3

[2] = test system: MDR Gram-negative bacteria clinical isolates; assay: Checkerboard assay, summary over strains; assay type: cell-based; conditions: of all 14 clinical isolates; number (%)
[3] = E. coli 94393 (colistin-resistant)
[4] = E. coli 94474 (colistin-resistant)
[5] = K. pneumoniae 113250 (colistin-resistant)
[6] = of rifampicin by 8 µg/mL (5 µM) compound 1
[7] = rifampicin MIC with 8 µg/mL (5 µM) compound 1

SMILES: CO[C@H]1/C=C/O[C@@]2(C)Oc3c(C)c(O)c4c(O)c(c(/C=N/N5CCN(C)CC5)c(O)c4c3C2=O)NC(=O)/C(C)=C\C=C\[C@H](C)[C@H](O)[C@@H](C)[C@@H](O)[C@@H](C)[C@H](OC(C)=O)[C@@H]1C [Rifampicin]
- Interpretation (P. aeruginosa; P. aeruginosa 259-96916, antibiotic + compound 1): Synergy (FIC indices of ≤0.5 is synergistic)
- MICantibiotic + compound (P. aeruginosa; P. aeruginosa 259-96916, antibiotic MIC with 8 µg/mL (5 µM) compound 1): 0.031 µg/mL
- MICantibiotic (P. aeruginosa; P. aeruginosa 259-96916): 16 µg/mL
- Potentiation (P. aeruginosa; P. aeruginosa 259-96916, of antibiotic by 8 µg/mL (5 µM) compound 1): ≥512-fold
- Interpretation (P. aeruginosa; P. aeruginosa 262-101856, antibiotic + compound 1): Synergy (FIC indices of ≤0.5 is synergistic)
- MICantibiotic + compound (P. aeruginosa; P. aeruginosa 262-101856, antibiotic MIC with 8 µg/mL (5 µM) compound 1): 2 µg/mL
- MICantibiotic (P. aeruginosa; P. aeruginosa 262-101856): 512 µg/mL
- Potentiation (P. aeruginosa; P. aeruginosa 262-101856, of antibiotic by 8 µg/mL (5 µM) compound 1): 256 fold
- Interpretation (P. aeruginosa; P. aeruginosa 264-105354, antibiotic + compound 1): Synergy (FIC indices of ≤0.5 is synergistic)
- MICantibiotic (P. aeruginosa; P. aeruginosa 264-105354): 32 µg/mL
- Potentiation (P. aeruginosa; P. aeruginosa 264-105354, of antibiotic by 8 µg/mL (5 µM) compound 1): ≥256-fold
- Interpretation (P. aeruginosa; P. aeruginosa 101243 (colistin-resistant), antibiotic + compound 1): Synergy (FIC indices of ≤0.5 is synergistic)
- MICantibiotic + compound (P. aeruginosa; P. aeruginosa 101243 (colistin-resistant), antibiotic MIC with 8 µg/mL (5 µM) compound 1): 2 µg/mL
- MICantibiotic (P. aeruginosa; P. aeruginosa 101243 (colistin-resistant)): 16 µg/mL
- Potentiation (P. aeruginosa; P. aeruginosa 101243 (colistin-resistant), of antibiotic by 8 µg/mL (5 µM) compound 1): 8 fold
- Interpretation (P. aeruginosa; P. aeruginosa 114228 (colistin-resistant), antibiotic + compound 1): Additive (0.5 < × ≤ 4 is additive)
- MICantibiotic + compound (P. aeruginosa; P. aeruginosa 114228 (colistin-resistant), antibiotic MIC with 8 µg/mL (5 µM) compound 1): 8 µg/mL
- MICantibiotic (P. aeruginosa; P. aeruginosa 114228 (colistin-resistant)): 16 µg/mL
- Potentiation (P. aeruginosa; P. aeruginosa 114228 (colistin-resistant), of antibiotic by 8 µg/mL (5 µM) compound 1): 2 fold
- Interpretation (P. aeruginosa; P. aeruginosa PAO1, antibiotic + compound 1): Synergy (FIC indices of ≤0.5 is synergistic)
- Interpretation (P. aeruginosa; P. aeruginosa PAO1, antibiotic + compound 3): Additive (0.5 < × ≤ 4 is additive)
- MICantibiotic + compound (P. aeruginosa; P. aeruginosa PAO1, antibiotic MIC with 8 µg/mL (5 µM) compound 1): 0.063 µg/mL
- MICantibiotic + compound (P. aeruginosa; P. aeruginosa PAO1, antibiotic MIC with 8 µg/mL (5 µM) compound 3): 32 µg/mL
- MICantibiotic (P. aeruginosa; P. aeruginosa PAO1): 16 µg/mL and 32 µg/mL
- Potentiation (P. aeruginosa; P. aeruginosa PAO1, of antibiotic by 8 µg/mL (5 µM) compound 1): ≥256-fold
- Potentiation (P. aeruginosa; P. aeruginosa PAO1, of antibiotic by 8 µg/mL (5 µM) compound 3): 1 fold
- Interpretation (A. baumannii; A. baumannii 92247 (colistin-resistant), antibiotic + compound 1): Synergy (FIC indices of ≤0.5 is synergistic)
- MICantibiotic + compound (A. baumannii; A. baumannii 92247 (colistin-resistant), antibiotic MIC with 4 µg/mL (2 µM) compound 1): 0.031 µg/mL
- MICantibiotic (A. baumannii; A. baumannii 92247 (colistin-resistant)): 4 µg/mL
- Potentiation (A. baumannii; A. baumannii 92247 (colistin-resistant), of antibiotic by 4 µg/mL (2 µM) compound 1): 128 fold
- Interpretation (A. baumannii; A. baumannii 110193, antibiotic + compound 1): Synergy (FIC indices of ≤0.5 is synergistic)
- MICantibiotic + compound (A. baumannii; A. baumannii 110193, antibiotic MIC with 4 µg/mL (2 µM) compound 1): 0.004 µg/mL
- MICantibiotic (A. baumannii; A. baumannii 110193): 4 µg/mL
- Potentiation (A. baumannii; A. baumannii 110193, of antibiotic by 4 µg/mL (2 µM) compound 1): ≥1024-fold
- Interpretation (A. baumannii; A. baumannii AB027, antibiotic + compound 1): Synergy (FIC indices of ≤0.5 is synergistic)
- MICantibiotic + compound (A. baumannii; A. baumannii AB027, antibiotic MIC with 4 µg/mL (2 µM) compound 1): 0.004 µg/mL
- MICantibiotic (A. baumannii; A. baumannii AB027): 2 µg/mL
- Potentiation (A. baumannii; A. baumannii AB027, of antibiotic by 4 µg/mL (2 µM) compound 1): ≥512-fold
- Interpretation (A. baumannii; A. baumannii AB031, antibiotic + compound 1): Synergy (FIC indices of ≤0.5 is synergistic)
- MICantibiotic + compound (A. baumannii; A. baumannii AB031, antibiotic MIC with 4 µg/mL (2 µM) compound 1): 0.004 µg/mL
- MICantibiotic (A. baumannii; A. baumannii AB031): 4 µg/mL
- Potentiation (A. baumannii; A. baumannii AB031, of antibiotic by 4 µg/mL (2 µM) compound 1): ≥1024-fold
- Interpretation (A. baumannii; A. baumannii ATCC 17978, antibiotic + compound 1): Synergy (FIC indices of ≤0.5 is synergistic)
- Interpretation (A. baumannii; A. baumannii ATCC 17978, antibiotic + compound 3): Additive (0.5 < × ≤ 4 is additive)
- MICantibiotic + compound (A. baumannii; A. baumannii ATCC 17978, antibiotic MIC with 8 µg/mL (5 µM) compound 3): 2 µg/mL
- MICantibiotic + compound (A. baumannii; A. baumannii ATCC 17978, antibiotic MIC with ¼ MIC (≤5 µM) of compound 1): 0.016 µg/mL
- MICantibiotic (A. baumannii; A. baumannii ATCC 17978): 8 µg/mL and 4 µg/mL
- Potentiation (A. baumannii; A. baumannii ATCC 17978, of antibiotic by 8 µg/mL (5 µM) compound 3): 2 fold
- Potentiation (A. baumannii; A. baumannii ATCC 17978, of antibiotic by ¼ MIC (≤5 µM) of compound 1): ≥512-fold
- Interpretation (E. coli; [3]): Synergy (FIC indices of ≤0.5 is synergistic)
- MICantibiotic + compound (E. coli; [3]): 0.5 µg/mL
- MICantibiotic (E. coli; [3]): >16 µg/mL
- Potentiation (E. coli; [3]): ≥32-fold
- Interpretation (E. coli; [4]): Synergy (FIC indices of ≤0.5 is synergistic)
- MICantibiotic + compound (E. coli; [4]): 0.5 µg/mL
- MICantibiotic (E. coli; [4]): 8 µg/mL
- Potentiation (E. coli; [4]): 16 fold
- Interpretation (K. pneumoniae; [5]): Synergy (FIC indices of ≤0.5 is synergistic)
- MICantibiotic + compound (K. pneumoniae; [5]): 2 µg/mL
- MICantibiotic (K. pneumoniae; [5]): 32 µg/mL
- Potentiation (K. pneumoniae; [5]): 16 fold
- Interpretation (K. pneumoniae; K. pneumoniae 116381): Synergy (FIC indices of ≤0.5 is synergistic)
- MICantibiotic + compound (K. pneumoniae; K. pneumoniae 116381): 0.25 µg/mL
- MICantibiotic (K. pneumoniae; K. pneumoniae 116381): >256 µg/mL
- Potentiation (K. pneumoniae; K. pneumoniae 116381): ≥2048-fold
- Interpretation (E. cloacae; antibiotic + compound 1): Synergy (FIC indices of ≤0.5 is synergistic)
- MICantibiotic + compound (E. cloacae; antibiotic MIC with 8 µg/mL (5 µM) compound 1): 1 µg/mL
- MICantibiotic (E. cloacae; antibiotic alone): >4 µg/mL
- Potentiation (E. cloacae; of antibiotic by 8 µg/mL (5 µM) compound 1): ≥8-fold
- Potentiation (E. faecalis ATCC 29212; [6]): 1 fold
- Interpretation (E. faecalis ATCC 29212; rifampicin + compound 1): Additive (0.5 < × ≤ 4 is additive)
- MICantibiotic + compound (E. faecalis ATCC 29212; [7]): 0.5 µg/mL
- MICantibiotic (E. faecalis ATCC 29212; rifampicin alone): 0.5 µg/mL
- Potentiation (E. faecium ATCC 27270; [6]): 1 fold
- Interpretation (E. faecium ATCC 27270; rifampicin + compound 1): Additive (0.5 < × ≤ 4 is additive)
- MICantibiotic + compound (E. faecium ATCC 27270; [7]): 0.031 µg/mL
- MICantibiotic (E. faecium ATCC 27270; rifampicin alone): 0.031 µg/mL
- Potentiation [1, 6]: 1 fold
- Interpretation ([1]; rifampicin + compound 1): Additive (0.5 < × ≤ 4 is additive)
- MICantibiotic + compound [1, 7]: 512 µg/mL
- MICantibiotic ([1]; rifampicin alone): 512 µg/mL
- clinical isolates in which the antibiotic was synergized by compound 1 [2]: 13 (93%) strains
